This passage reports IC50 and EC50 results from patent EP4650353A1 (Shanghai Institute of Materia Medica, Chinese Academy of …, priority 2023, dated 2024).

What is called IC50 is the midpoint of a concentration-inhibition curve. Low readings indicate greater potency in that assay, high ones weaker potency in that assay. What is called EC50 is the concentration needed to bring the measured effect to its halfway point.

Test [1] has as its target hERG potassium channels (Homo sapiens, UniProt Q12809). As to the kind of experiment: cell-based. As for the experimental part:
CHO cells expressing hERG protein were cultured in 175 cm^2 culture flasks. When the cell density grew to 60-80%, the culture medium was removed, the cells were washed once with 7 mL PBS, and then 3 mL Detachin was added for digestion. After digestion was complete, 7 mL of culture medium was added to neutralize, then centrifuged. The supernatant was aspirated, and 5 mL of culture medium was added to resuspend to ensure that the cell density is 2-5×10^6/mL.
Both the single-cell high-impedance sealing and whole-cell mode formation processes were automatically completed by the Qpatch instrument. After obtaining the whole-cell recording mode, the cell was clamped at -80 mV. Before a 5-second +20 mV depolarizing stimulus was given, a 50-ms -50 mV pre-voltage was given, and then the cell was repolarized to -50 mV for 5 seconds and then returned to -80 mV. This voltage stimulation was applied every 15 seconds. After recording for 2 minutes, the extracellular solution was recorded for 2 minutes. Then the drug administration process began. The compound concentration started from the lowest tested concentration. Each tested concentration was given for 2 minutes. […] At least three cells were tested for each concentration (n≥3).
The compound stock solution was diluted with extracellular fluid, 5 µL of 20 mM compound stock solution was added to 2495 µL extracellular fluid, diluted 500 times to 40 µM, and then serially diluted 3 times in extracellular fluid containing 0.2% DMSO (v/v) to obtain the final concentration to be tested.
The experimental data were analyzed by XLFit software.

Test [2] has as its target T1, human GLP-1 receptor (Homo sapiens, UniProt P43220).
T1 construct: HA (N); expressed in transfected cells
As to the kind of experiment: GLP-1 receptor-mediated agonist activity: cAMP level in hGLP-1R/HEK293 cell line (HTRF). In kind it is cell-based. In general terms: Changes in cAMP serve as a functional read-out for many G protein-coupled receptors.
Procedure: The hGLP-1R/HEK293 cells were digested, centrifuged and resuspended in culture medium (DMEM+0.2% BSA, m/v), and the cell density was adjusted to 2×10^5 cells/mL. IBMX (3-isobutyl-1-methylxanthine, final concentration of 0.5 mM) was added to the cell suspension and added to a 384-well plate at 5 µL (1×10^3 cells)/well. The compound was dissolved in DMSO to prepare a stock solution with a concentration of 10 mM. The experiment started with a concentration of 100 µM which was diluted 10 times in a series of 7 dilution points, with the 8th point being DMSO. 2 µL of the test compound of different concentrations was added to 98 µL of culture medium, shaken and mixed, 5 µL was taken and added to a 384-well plate (final concentration of the test compound was 0-100 nM, final concentration of DMSO was 1%, v/v), which was then incubated in the incubator (37°C, 5% CO2) in the dark for 30 min, then 10 µL of cAMP detection reagent (LANCE Ultra cAMP Detecion Kit, PerkinElmer, #TRF0264) was added, mixed well, and reacted at room temperature in the dark for 1 h. After the reaction was completed, the HTRF signal was read using the Envision 2104 multi-function microplate reader. All samples were tested in triplicate wells, and the ratio of the acceptor-donor excitation signal in each single well was calculated using the formula Ratio = Signal 665nM/Signal 620nM. The HTRF signal ratio and the corresponding compound concentration were analyzed and processed using GraphPad Prism 8 software, and the EC50 value of the compound was obtained by fitting the S-type dose-response curve and calculating.

The mark [3] stands for this setting: cAMP levels in hGLP-1R/HEK293 cell line, Table 1, read-out: determined EC50.

The structures appear in SMILES notation. Where two headings read alike, the source gives them in different places.

T1 sequence (P43220 24-463): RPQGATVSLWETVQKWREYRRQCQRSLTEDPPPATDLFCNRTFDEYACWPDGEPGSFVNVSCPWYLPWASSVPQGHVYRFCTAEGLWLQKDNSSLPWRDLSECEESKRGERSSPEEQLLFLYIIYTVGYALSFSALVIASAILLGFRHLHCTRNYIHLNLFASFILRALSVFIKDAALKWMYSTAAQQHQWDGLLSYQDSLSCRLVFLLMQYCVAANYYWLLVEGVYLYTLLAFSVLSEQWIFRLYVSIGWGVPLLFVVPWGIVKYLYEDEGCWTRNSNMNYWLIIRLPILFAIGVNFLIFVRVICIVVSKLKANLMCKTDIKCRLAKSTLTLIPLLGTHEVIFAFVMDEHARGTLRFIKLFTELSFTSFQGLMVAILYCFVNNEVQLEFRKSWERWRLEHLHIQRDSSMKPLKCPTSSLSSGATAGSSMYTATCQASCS
Chain of hERG potassium channels (Q12809 whole entry): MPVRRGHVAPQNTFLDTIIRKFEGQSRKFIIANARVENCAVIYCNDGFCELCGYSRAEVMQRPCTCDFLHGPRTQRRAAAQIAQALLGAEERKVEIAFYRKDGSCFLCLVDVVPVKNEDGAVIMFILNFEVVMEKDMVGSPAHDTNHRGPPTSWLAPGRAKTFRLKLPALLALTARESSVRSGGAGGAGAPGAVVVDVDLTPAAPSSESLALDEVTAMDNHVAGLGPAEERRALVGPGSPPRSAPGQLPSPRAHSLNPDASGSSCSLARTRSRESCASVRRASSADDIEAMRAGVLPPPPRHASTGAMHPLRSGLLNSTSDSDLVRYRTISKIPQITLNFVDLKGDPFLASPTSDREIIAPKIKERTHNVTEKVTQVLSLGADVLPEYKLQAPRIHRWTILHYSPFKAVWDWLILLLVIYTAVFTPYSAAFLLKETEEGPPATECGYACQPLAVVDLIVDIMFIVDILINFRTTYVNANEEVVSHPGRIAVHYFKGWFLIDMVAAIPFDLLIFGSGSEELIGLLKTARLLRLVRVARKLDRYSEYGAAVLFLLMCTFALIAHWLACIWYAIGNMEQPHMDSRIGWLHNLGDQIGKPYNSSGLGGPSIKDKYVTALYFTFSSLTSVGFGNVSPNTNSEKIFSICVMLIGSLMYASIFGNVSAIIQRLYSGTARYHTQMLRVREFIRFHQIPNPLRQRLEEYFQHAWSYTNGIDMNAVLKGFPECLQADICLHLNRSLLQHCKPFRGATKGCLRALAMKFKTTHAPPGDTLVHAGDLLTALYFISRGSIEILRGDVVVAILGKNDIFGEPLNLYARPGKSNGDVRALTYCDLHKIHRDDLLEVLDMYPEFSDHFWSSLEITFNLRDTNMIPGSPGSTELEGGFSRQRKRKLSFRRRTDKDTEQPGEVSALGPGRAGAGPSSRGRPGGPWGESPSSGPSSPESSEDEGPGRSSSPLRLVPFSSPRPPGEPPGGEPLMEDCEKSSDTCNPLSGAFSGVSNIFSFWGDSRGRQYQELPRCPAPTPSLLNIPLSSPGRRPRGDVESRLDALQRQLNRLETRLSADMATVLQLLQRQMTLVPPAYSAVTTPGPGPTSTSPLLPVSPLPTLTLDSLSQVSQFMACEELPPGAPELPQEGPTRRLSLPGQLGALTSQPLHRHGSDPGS

As for `CCOc1cc(C(=O)O)cc2c1nc(CN1CCN(c3cccc4c3OC(C)(c3ccc(C(F)(F)F)cc3F)O4)C=N1)n2C[C@@H]1CCO1` (stereo partly drawn) [Compound 81, 4-ethoxy-2-((4-(2-(2-fluoro-4-(trifluoromethyl)phenyl)-2-methylbenzo[d][1,3]dioxol-4-yl)-5,6-dihydro-1,2,4-triazin-1(4H)-yl)methyl)-1-(((S)-oxetan-2-yl)methyl)-1H-benzo[d]imidazole-6-carboxylic acid], the 50% inhibitory concentration (IC50) in test [1] was greater than 40 µM. The EC50 in test [2] (setting [3]) stood at 8.4 pM. For `[2H]C([2H])([2H])C([2H])([2H])Oc1cc(C(=O)O)cc2c1nc(CN1CCN(c3cccc4c3OC(C)(c3ccc(Cl)cn3)O4)C=N1)n2C[C@@H]1CCO1` (stereo partly drawn) [Compound 73, 2-((4-(2-(5-chloropyridin-2-yl)-2-methylbenzo[d][1,3]dioxol-4-yl)-5,6-dihydro-1,2,4-triazin-1(4H)-yl)methyl)-4-(ethoxy-d5)-1-(((S)-oxetan-2-yl)methyl)-1H-benzo[d]imidazole-6-carboxylic acid], in that order: greater than 40 µM and 8.4 pM. In the same order, the values of `[2H]C([2H])([2H])Oc1cc(C(=O)O)cc2c1nc(CN1CCC(c3cccc4c3OC(C)(c3ccc(Cl)cn3)O4)CC1)n2C[C@@H]1CCO1` (stereo partly drawn) [Compound 61, 2-((4-(2-(5-chloropyridin-2-yl)-2-methylbenzo[d][1,3]dioxol-4-yl)piperidin-1-yl)methyl)-4-(methoxy-d3)-1-(((S)-oxetan-2-yl)methyl)-1H-benzo[d]imidazole-6-carboxylic acid] are greater than 40 µM and 10.3 pM.

`COc1cc(C(F)(F)F)ccc1COc1cccc(N2C=NN(Cc3nc4c(OC)cc(C(=O)O)cc4n3C[C@@H]3CCO3)CC2)n1` [Compound 23, (S)-4-methoxy-2-((4-(6-((2-methoxy-4-(trifluoromethyl)benzyl)oxy)pyridin-2-yl)-5,6-dihydro-1,2,4-triazin-1(4H)-yl)methyl)-1-(oxetan-2-ylmethyl)-1H-benzo[d]imidazole-6-carboxylic acid] had a half-inhibitory concentration (IC50) in test [1] greater than 40 µM. The EC50 in test [2] (setting [3]) turned out to be 1.5 pM. With `COc1cc(C(=O)O)cc2c1nc(CN1CCN(c3cccc(OCc4ccc(Cl)cc4F)n3)C=N1)n2C[C@@H]1CCO1` [Compound 17, (S)-2-((4-(6-((4-chloro-2-fluorobenzyl)oxy)pyridin-2-yl)-5,6-dihydro-1,2,4-triazin-1(4H)-yl)methyl)-4-methoxy-1-(oxetan-2-ylmethyl)-1H-benzo[d]imidazole-6-carboxylic acid], the half-inhibitory concentration (IC50) in test [1] was greater than 40 µM. Further, the concentration for a half-maximal effect (EC50) in test [2] (setting [3]) came out at 4.7 pM. For `CCOc1cc(C(=O)O)cc2c1nc(CN1CCN(c3cccc4c3OC(C)(c3ccc(Cl)cn3)O4)C=N1)n2C[C@@H]1CCO1` (stereo partly drawn) [Compound 69, 2-((4-(2-(5-chloropyridin-2-yl)-2-methylbenzo[d][1,3]dioxol-4-yl)-5,6-dihydro-1,2,4-triazin-1(4H)-yl)methyl)-4-ethoxy-1-(((S)-oxetan-2-yl)methyl)-1H-benzo[d]imidazole-6-carboxylic acid], in test [2] (setting [3]), the half-maximal effective concentration (EC50) amounted to 11.1 pM. Still for that read-out and setting: with `CCOc1cc(C(=O)O)cc2c1nc(CN1CCN(c3cccc4c3OC(C)(c3ccc(Cl)cc3F)O4)C=N1)n2C[C@@H]1CCO1` (stereo partly drawn) [Compound 68, 2-((4-(2-(4-chloro-2-fluorophenyl)-2-methylbenzo[d][1,3]dioxol-4-yl)-5,6-dihydro-1,2,4-triazin-1(4H)-yl)methyl)-4-ethoxy-1-(((S)-oxetan-2-yl)methyl)-1H-benzo[d]imidazole-6-carboxylic acid] the figure was 6.4 pM.

Turning to `COc1cc(Cl)ccc1C1(C)Oc2cccc(N3C=NN(Cc4nc5c(OC)cc(C(=O)O)cc5n4C[C@@H]4CCO4)CC3)c2O1` (stereo partly drawn) [Compound 83, 2-((4-(2-(4-chloro-2-methoxyphenyl)-2-methylbenzo[d][1,3]dioxol-4-yl)-5,6-dihydro-1,2,4-triazin-1(4H)-yl)methyl)-4-methoxy-1-(((S)-oxetan-2-yl)methyl)-1H-benzo[d]imidazole-6-carboxylic acid], the EC50 in test [2] (setting [3]) amounted to 9.2 pM.

In the case of `[2H]C([2H])([2H])Oc1cc(C(=O)O)cc2c1nc(CN1CCN(c3cccc4c3OC(C)(c3ccc(Cl)cn3)O4)C=N1)n2C[C@@H]1CCO1` (stereo partly drawn) [Compound 70, 2-((4-(2-(5-chloropyridin-2-yl)-2-methylbenzo[d][1,3]dioxol-4-yl)-5,6-dihydro-1,2,4-triazin-1(4H)-yl)methyl)-4-(methoxy-d3)-1-(((S)-oxetan-2-yl)methyl)-1H-benzo[d]imidazole-6-carboxylic acid], the concentration for a half-maximal effect (EC50) in test [2] (setting [3]) turned out to be 27.3 pM.

Take `N#Cc1ccc(COc2cccc(C3CCN(Cc4nc5c(OCC6CC6)cc(C(=O)O)cc5n4C[C@@H]4CCO4)CC3)n2)c(F)c1` [Compound 5, (S)-2-((4-(6-((4-cyano-2-fluorobenzyl)oxy)pyridin-2-yl)piperidin-1-yl)methyl)-4-(cyclopropylmethoxy)-1-(oxetan-2-ylmethyl)-1H-benzo[d]imidazole-6-carboxylic acid]: the EC50 in test [2] (setting [3]) amounted to 12 pM. Still for that read-out and setting: with `COc1cc(Cl)ccc1C1(C)Oc2cccc(C3CCN(Cc4nc5c(OC)cc(C(=O)O)cc5n4C[C@@H]4CCO4)CC3)c2O1` (stereo partly drawn) [Compound 57, 2-((4-(2-(4-chloro-2-methoxyphenyl)-2-methylbenzo[d][1,3]dioxol-4-yl)piperidin-1-yl)methyl)-4-methoxy-1-(((S)-oxetan-2-yl)methyl)-1H-benzo[d]imidazole-6-carboxylic acid] the figure was 2.8 pM; with `CCOc1cc(C(=O)O)cc2c1nc(CN1CCN(c3cccc4c3OC(C)(c3ccc(C(F)(F)F)cn3)O4)C=N1)n2C[C@@H]1CCO1` (stereo partly drawn) [Compound 66, 4-ethoxy-2-((4-(2-methyl-2-(5-(trifluoromethyl)pyridin-2-yl)benzo[d][1,3]dioxol-4-yl)-5,6-dihydro-1,2,4-triazin-1(4H)-yl)methyl)-1-(((S)-oxetan-2-yl)methyl)-1H-benzo[d]imidazole-6-carboxylic acid], 5.2 pM; with `CCOc1cc(C(=O)O)cc2c1nc(CN1CCC(c3cccc(OCc4ccc(C(F)(F)F)cc4F)n3)CC1)n2C[C@@H]1CCO1` [Compound 28, (S)-4-ethoxy-2-((4-(6-((2-fluoro-4-(trifluoromethyl)benzyl)oxy)pyridin-2-yl)piperidin-1-yl)methyl)-1-(oxetan-2-ylmethyl)-1H-benzo[d]imidazole-6-carboxylic acid], 7.4 pM.

For `CCOc1cc(C(=O)O)cc2c1nc(CN1CCC(c3cccc4c3OC(C)(c3ccc(C(F)(F)F)cc3F)O4)CC1)n2C[C@@H]1CCO1` (stereo partly drawn) [Compound 54, 4-ethoxy-2-((4-(2-(2-fluoro-4-(trifluoromethyl)phenyl)-2-methylbenzo[d][1,3]dioxol-4-yl)piperidin-1-yl)methyl)-1-(((S)-oxetan-2-yl)methyl)-1H-benzo[d]imidazole-6-carboxylic acid], the EC50 in test [2] (setting [3]) came to 7.7 pM. The same measure, in the same setting: with `COc1cc(C(=O)O)cc2c1nc(CN1CCC(c3cccc(OCc4ccc(C#N)c5c4OCC5)n3)CC1)n2C[C@@H]1CCO1` [Compound 15, (S)-2-((4-(6-((4-cyano-2,3-dihydrobenzofuran-7-yl)methoxy)pyridin-2-yl)piperidin-1-yl)methyl)-4-methoxy-1-(oxetan-2-ylmethyl)-1H-benzo[d]imidazole-6-carboxylic acid] the figure was 1.9 pM. Consider `CC1(c2ccc(Cl)cc2F)Oc2cccc(N3C=NN(Cc4nc5ccc(C(=O)O)cc5n4C[C@@H]4CCO4)CC3)c2O1` (stereo partly drawn) [CN2022114139828 , Compound 37, reference compound], for which the EC50 in test [2] (cAMP levels of the hGLP-1R/HEK293 cell line, Table 2, comparison with reference compounds, read-out: EC50) was 137 pM.
